Results on 36 compounds are retold here after paper PMC10977697 (PLOS ONE, 2024).

Where a SMILES comes first, the peptide text is derived from it. Bridges are numbered along the chain shown (N, C = ends). Where no end group is shown, it is not given here.

Test [1] relates to trypsin. Nature of the test: Phage ELISA of displayed DCPs on immobilized trypsin. The following applies: DCP displayed on M13 p3 or p8, phage ELISA on trypsin-coated plates (Fig 1). On the technique in general: ELISA stands for enzyme-linked immunosorbent assay.
Procedure: The DCPs, incorporating an N-terminal gD-tag for quantification of display levels, were fused at the C-terminal to the major M13 coat protein p8 or the C-terminal domain of minor coat protein p3 (Fig 1A).
The display level was analyzed using phage ELISA described previously [47].
In test [2] the target is T1, Her3-Fc (Homo sapiens, UniProt P21860).
T1 construct: purchased R&D 348-RB
T1 sequence (P21860 20-643 limits assumed): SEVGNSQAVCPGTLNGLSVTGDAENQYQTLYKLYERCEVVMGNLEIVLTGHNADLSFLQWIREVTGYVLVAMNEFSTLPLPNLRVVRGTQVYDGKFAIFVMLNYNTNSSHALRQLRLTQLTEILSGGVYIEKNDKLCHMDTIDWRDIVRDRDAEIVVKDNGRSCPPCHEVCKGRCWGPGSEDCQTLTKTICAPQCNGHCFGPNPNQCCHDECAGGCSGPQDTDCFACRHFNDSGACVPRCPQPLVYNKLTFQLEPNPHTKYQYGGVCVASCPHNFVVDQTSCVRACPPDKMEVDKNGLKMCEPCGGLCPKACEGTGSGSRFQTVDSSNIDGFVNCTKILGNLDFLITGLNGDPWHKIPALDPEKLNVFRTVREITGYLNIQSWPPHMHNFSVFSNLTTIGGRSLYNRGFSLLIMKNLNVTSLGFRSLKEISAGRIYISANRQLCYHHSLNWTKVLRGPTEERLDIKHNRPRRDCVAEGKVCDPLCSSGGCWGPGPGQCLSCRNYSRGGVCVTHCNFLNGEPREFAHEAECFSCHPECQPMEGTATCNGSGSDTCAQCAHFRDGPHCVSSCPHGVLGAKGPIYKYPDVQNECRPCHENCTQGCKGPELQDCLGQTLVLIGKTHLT
In words: Spot phage ELISA, Her3-Fc. It counts as binding. The following applies: for S/N: ratio of signal for target protein over BSA background; for ELISA: spot phage ELISA signal, DCP displayed on M13 p8.

The test system of test [3] is Notch2Long. In words: Spot phage ELISA, Notch2Long. It counts as binding, human. The following applies: for ELISA: spot phage ELISA signal.
Test [4] deals with HGFA. In words: Spot phage ELISA, HGFA. It is filed as binding, human. The following applies: for S/N: ratio of signal for target protein over BSA background, S/N > 2 positive; for ELISA: spot phage ELISA signal, DCP displayed on M13 p8, phage supernatant 1:3 in PBT, anti-M13-HRP, TMB.
Test [5] concerns CD28-Fc. In words: Spot phage ELISA, CD28-Fc. It is filed as binding. The following applies: for ELISA: spot phage ELISA signal of phage-displayed DCP clone on CD28-Fc; for S/N: spot phage ELISA signal-to-noise on CD28-Fc.
The test system of test [6] is R-spondin. In words: Spot phage ELISA, R-spondin. It is filed as binding, human. The following applies: for S/N: ratio of signal for target protein over BSA background; for ELISA: spot phage ELISA signal, DCP displayed on M13 p8.

Regarding “GLPVCGETCVGGTCNTPGCTCSWPVCTRN (also: bicyclic or more (positions not given here)) [kalata B1]”, in test [1], the “phage binding to immobilized trypsin” value is given as “did not exhibit any binding signal”.

Take “GCWSSEKGLACKQDSDCLAGCVCDQTGSCG (also: bicyclic or more (positions not given here)) [Her3-Fc EET I-II 52]”: in test [2], the S/N was found to be 23.0 and the ELISA is listed as 1.65.

On to “GCPRILMRCKQDSDCLSGCVCSGPPPCG (also: bicyclic or more (positions not given here)) [Her3-Fc EET I-II 24]”, for which, in test [2], the S/N is 16.6 and the ELISA was found to be 1.61.

Take “GCQLHYSQQGCKQYSULSGLVLWYTIHRLLRWRI [Her3-Fc EET I-II 4]”: in test [2], the S/N is reported as 21.1 and the ELISA was determined as 1.45.

As to “GCHPDPWWCKQDSDCLARWCG [Her3-Fc EET I-II 37]”, in test [2], the S/N is recorded as 43.4 and the ELISA came to 3.17.

As for `CC[C@H](C)[C@@H]1NC(=O)[C@@H]2CCCN2C(=O)[C@H](CCC(=O)O)NC(=O)[C@@H]2CSSC[C@@H]3NC(=O)[C@H](Cc4c[nH]cn4)NC(=O)[C@H](Cc4c[nH]c5ccccc45)NC(=O)[C@H](CC(C)C)NC(=O)[C@H]([C@@H](C)O)NC(=O)[C@H](Cc4c[nH]c5ccccc45)NC(=O)CNC(=O)[C@@H](NC(=O)CN)CSSC[C@H](NC(=O)CNC(=O)[C@H](C)NC(=O)[C@H](CC(C)C)NC(=O)[C@H](CSSC[C@@H](C(=O)NCC(=O)O)NC(=O)[C@H](Cc4c[nH]c5ccccc45)NC(=O)[C@H](Cc4c[nH]c5ccccc45)NC1=O)NC(=O)[C@H](CC(=O)O)NC(=O)[C@H](CO)NC(=O)[C@H](CC(=O)O)NC(=O)[C@H](CCC(N)=O)NC(=O)[C@H](CCCCN)NC3=O)C(=O)N[C@@H](C(C)C)C(=O)N2` [N2L-EET-03] (HELM PEPTIDE1{G.C.G.W.T.L.W.H.C.K.Q.D.S.D.C.L.A.G.C.V.C.E.P.I.W.W.C.G}$PEPTIDE1,PEPTIDE1,2:R3-19:R3|PEPTIDE1,PEPTIDE1,9:R3-21:R3|PEPTIDE1,PEPTIDE1,15:R3-27:R3$$$V2.0; N-terminus and C-terminus assumed), the “s/n ratio” value in test [3] (Table 3, affinity maturation clones, signal over BSA background) was determined as 3.1. Besides, the ELISA was found to be 0.4 in test [3] (Table 3, affinity maturation clones, display (p8 or p3) not given per clone) and 0.35 in test [3] (initial hits, DCP displayed on M13 p8). Also, the S/N in test [3] (initial hits, ratio of signal for target protein over BSA background) is 3.1.

As to “GCAESQHWWLWGCKQDSDCLAGCVCGPNGFCG (also: bicyclic or more (positions not given here)) [HGFA EET I-II 31]”, in test [4], the S/N was 22.4 and the ELISA is 1.95.

With “GCDEYWYECKQDSDCLAGCVCLIWGHCG (disulfide (positions not given here)) [CD28-Fc EET I-II 7]”, in test [5], the ELISA worked out at 1.32 and the S/N turned out to be 20.3.

In test [5], “GCVWNWVECKQDSDCLAGCVCYIWGRCG (disulfide (positions not given here)) [CD28-Fc EET I-II 1]” had an ELISA of 1.59 and a S/N of 15.4.

For the compound “GCYWKRQFKCKQDSYCLPGCVCGWEMSCG (disulfide (positions not given here)) [CD28-Fc EET I-II 16]”, in test [5], the ELISA is on record as 1.80 and the S/N was 8.4.

As to “GCQSHYSHQGCKQDSDCLAGYCG [Her3-Fc EET I-II 11]”, in test [2], the S/N is listed as 26.1 and the ELISA turned out to be 1.65.

“GCMMYWDECKQDSDCLAGCVCLIWNRCG (disulfide (positions not given here)) [CD28-Fc EET I-II 4]”: in test [5], the ELISA is recorded as 1.85 and the S/N came to 34.2.

For “GCDPWIWQEWGVCKQDSDCLAGCVCGPNGFCG (also: bicyclic or more (positions not given here)) [R-spondin EETI-II 47]”, in test [6], the S/N came to 13.7 and the ELISA is recorded as 1.06.

In test [5], “GCYTFWHKCKQDSDCLAGCVCLIWGRCG (disulfide (positions not given here)) [CD28-Fc EET I-II 11]” had an ELISA of 1.50 and a S/N of 19.0.

For the compound “GCMWDWDACKQDSDCLAGCVCSIWGRCG (disulfide (positions not given here)) [CD28-Fc EET I-II 2]”, in test [5], the ELISA amounted to 1.29 and the S/N worked out at 10.9.

Turning to “GCLASHPWWSVWCKQDSDCLAGCVCQEMGICG (also: bicyclic or more (positions not given here)) [R-spondin EETI-II 31]”, in test [6], the S/N came out at 11.4 and the ELISA was determined as 0.72.

Take “GCWEKRKMCKQDSDCLAGCVCGWEISCG (disulfide (positions not given here)) [CD28-Fc EET I-II 14]”: in test [5], the ELISA stood at 1.35 and the S/N is 22.9.

As for “GCPRILMRCKQDSDCLAGCVCAGPPPCG (also: bicyclic or more (positions not given here)) [Her3-Fc EET I-II 42]”, in test [2], the S/N worked out at 23.8 and the ELISA is listed as 1.52.

With “GCPRILMRCKQDSDCLAGCVCSGPPPCG (also: bicyclic or more (positions not given here)) [Her3-Fc EET I-II 7]”, in test [2], the S/N is given as 24.5 and the ELISA is reported as 1.60.

Consider “GCYWDSWFDEWVCKQDSDCLAGCVCGPNGFCG (also: bicyclic or more (positions not given here)) [HGFA EET I-II 59]”, for which, in test [4], the S/N turned out to be 13.4 and the ELISA stood at 1.67.

In test [5], “GCFWKRVHLCKQDSDCLAGCVCGWEASCG (disulfide (positions not given here)) [CD28-Fc EET I-II 15]” yielded an ELISA of 1.64 and a S/N of 31.6.

For “GCMNWGTFCKQDSDCLAGCVCALFGVCG (also: bicyclic or more (positions not given here)) [Her3-Fc EET I-II 66]”, in test [2], the S/N was found to be 27.8 and the ELISA was 1.59.

“GCPRILKRCKRDSDCLAGCVCRGNGFCG (also: bicyclic or more (positions not given here)) [EETI-mut]”: the “phage binding to immobilized trypsin” value in test [1] is listed as “significantly disrupted”.

For “GCALSIHWWLWPCKQDSDCLAGCVCGPNGFCG (also: bicyclic or more (positions not given here)) [HGFA EET I-II 20]”, in test [4], the S/N was determined as 13.5 and the ELISA was determined as 1.93.

Take “GCISKWFSCKQDSDCLAGCVCLLWQDCG (also: bicyclic or more (positions not given here)) [Her3-Fc EET I-II 67]”: in test [2], the S/N was found to be 20.1 and the ELISA was 1.54.

As to “GPTQSWQGRCGGIGYSGPTVCASGTTCQVLTPYWSECLPGAS (disulfide 10-27, 21-37 (inferred)) [Her3-Fc_CBD1]”, the S/N in test [2] was found to be 20.2. The ELISA in test [2] (listed as Her3-Fc CBD 3) is 1.65.

In the case of “AFDCLGQCVPYVLSPYCNSSCTR [Her3-Fc AVR9 6]”, in test [2], the S/N is 24.2 and the ELISA is 1.56.

Turning to “GCMEHWEYCKQDSDCLAGCVCVIWGRCG (disulfide (positions not given here)) [CD28-Fc EET I-II 13]”, in test [5], the ELISA was 1.52 and the S/N was determined as 27.2.

Regarding “GCDLDLDWIWHECKQDSDCLAGCVCHQGNFCG (also: bicyclic or more (positions not given here)) [Her3-Fc EET I-II 9]”, in test [2], the S/N is 25.7 and the ELISA is 1.44.

“SGSDGGVCPKILKKCRRDSDCPGACICRGNGYCG (also: bicyclic or more (positions not given here)) [MCoTI-II]”: in test [1], the “phage binding to immobilized trypsin” value was “showed binding signals”.

Regarding “GPSHSQYCHCGGIGYVGGHYCSCTNYQDEWGFESRCLPGAS [HGFA CBD 9]”, in test [4], the S/N was 25.0 and the ELISA is given as 1.80.

On to “GCEWDWWFDQWICKQDSDCLAGCVCGPNGFCG (also: bicyclic or more (positions not given here)) [HGFA EET I-II 16]”, for which, in test [4], the S/N was determined as 14.5 and the ELISA came out at 1.92.

Take “GCQWIAHWWLWDCKQDSDCLAGCVCGPNGFCG (also: bicyclic or more (positions not given here)) [HGFA EET I-II 86]”: in test [4], the S/N worked out at 22.6 and the ELISA came to 1.92.

Regarding “GCQWDWWMEEWWCKQDSDCLAGCVCGPNGFCG (also: bicyclic or more (positions not given here)) [HGFA EET I-II 14]”, in test [4], the S/N came to 15.2 and the ELISA was determined as 1.75.

Turning to “GCTQDWKTCKQDSDCLAGCVCVIWGRCG (disulfide (positions not given here)) [CD28-Fc EET I-II 6]”, in test [5], the ELISA was found to be 1.44 and the S/N is 21.2.

On to “GCPRILIRCKQDSDCLAGCVCSGPPPCG (also: bicyclic or more (positions not given here)) [Her3-Fc EET I-II 47]”, for which, in test [2], the S/N stood at 22.4 and the ELISA was found to be 1.64.
